Assays:
[1] = Stability of compound A and its salts, content by HPLC; type: physicochemical; details: for Content by HPLC after storage: raw material purity 98.6%
Method: (1) Content Determination Method
With a Octadecyl silane chemically bonded silica as bulking agent and 0.1% aqueous solution of ammonia-acetonitrile (65:35) as mobile phase, eluted in gradient mode at detection wavelength of 230 nm. Appropriate amount of test sample and reference solution was taken, then water was added to dissolve which to form solutions every 1 ml containing 0.2 mg of them respectively. The test sample solution and reference solution 10 μl was respectively taken and injected into the liquid chromatograph. chromatograph chart was recorded, and calculated by peak area according to the external standard method.
The stability of different types of the pharmaceutically acceptable salts of compound A under different conditions

[2] = system: genetic obese Wistar rats with diabetes; test: Oral glucose tolerance test in genetic obese Wistar rats with diabetes; type: in vivo, rat; details: for Plasma glucose: 30 mg/kg/day p.o. for 7 days, mean ± SD
Method: 13˜14 week-old male fat rats were divided into five groups, each group five. They were respectively administered the 6 salts of compound A (each 30 mg/kg/day, p.o.) for 7 days. After overnight fasting, oral glucose tolerance tests were conducted immidiately (2 g glucose/kg/5 ml, p.o.). Before and 120 and 240 mins after the glucose tolerance test, blood was collected from the tail vein, and plasma glucose was analyzed by enzymatic method (Encore Chemical System; Baker). Results were expressed as mean value of each group (n=5-6)±standard deviation analyzed by Dunnett's test which were shown in table 3.

[3] = system: genetic obese Wistar rats with diabetes; test: Effects of the 6 salts in genetic obese Wistar rats with diabetes (14 days); type: in vivo, rat; details: for Hemoglobin (hemoglobin A1) / Plasma glucose: male Wistar fat rats, 10 mg/kg/day p.o. in feed, mean ± SD, n=5-6
Method: 14 to 19 week-old male Wistar fat rats were divided into five groups, each to group 5 to 6, and they were respectively administered the 6 salts of compound A (each 10 mg/kg weight/day, p.o.) which were mixed in commercial feed at a ratio of […] for 14 days. The blood was taken from tail vein, a commercial kits (NC-ROPET, Nippon Chemiphar CO.) was used to measure plasma glucose and hemoglobin A1 by enzymatic is method. The results were expressed as mean value of each group (n=5-6)±standard deviation and analyzed by Dunnett's test which were shown in table 2. A significance level of 1% was used.

[4] = Absorption tests in rats of different salts (pharmacokinetics); details: rat, 6.0 mg/kg (by base) by gavage; for t1/2: 0.5% CMC-Na suspension
Method: (§1) 16 healthy male rats weighing 200˜220 g were randomly divided into four groups. […] The plasma was separated, preserved for test under −20° C. The blood concentration was tested by HPLC-Tandem Mass Spectrum.

in vivo = details: male, rat, po, 6 mg/kg
Method: as §1

[5] = 0 min (before glucose load 2 g/kg p.o.)
[6] = 120 min after glucose load 2 g/kg p.o.
[7] = 240 min after glucose load 2 g/kg p.o.

Compound	Content by HPLC after storage ([1]; 40° C., 10 days) [%]	Content by HPLC after storage ([1]; 60° C., 10 days) [%]	Content by HPLC after storage ([1]; Light, 10 days) [%]	Content by HPLC after storage ([1]; RH60%, 25° C., nine months) [%]	Content by HPLC after storage ([1]; RH75%, 40° C., six months) [%]	Plasma glucose [2, 5] [mg/dL]	Plasma glucose [2, 6] [mg/dL]	Plasma glucose [2, 7] [mg/dL]	Hemoglobin (hemoglobin A1) [3]	Plasma glucose [3]	AUC0-t [4] [ng·h/mL]	AUC0-∞ [4] [ng·h/mL]	CL/F [4] [mL/min/kg]	Cmax [4] [ng/mL]	MRT [4] [h]	Tmax [4] [min]	t1/2 [4] [min]	also measured
COC(=O)c1nc(C(F)(F)F)n2c1CN(C(=O)C[C@H](N)Cc1cc(F)c(F)cc1F)CC2.Cl [Hydrochloride of compound A, hydrochloride of (R)-7-[3-amino-4-(2,4,5-trifluoro-phenyl)-butyryl]-3-trifluoromethyl-5,6,7,8-tetrahydro-imidazo[1,5-a]pyrazine-1-carboxylic acid methyl ester]	98.7	98.2	98.1	97.5	97.7	109 ± 5	116 ± 7	106 ± 3	4.5 ± 0.5	165 ± 13	317	319	348	148	1.86	37.8	64.2	Stability test result in words ([1]; conclusion over all storage conditions): most satisfying; Effect on increase of blood sugar after the glucose tolerance test in words ([2]; 30 mg/kg/day p.o., 7 days): significantly inhibited the increase of blood sugar; Effect on blood glucose and hemoglobin in words ([3]; Wistar fat rats, 10 mg/kg/day): reduce the concentration of blood glucose and hemoglobin obviously
COC(=O)c1nc(C(F)(F)F)n2c1CN(C(=O)C[C@H](N)Cc1cc(F)c(F)cc1F)CC2 [Compound A, (R)-7-[3-amino-4-(2,4,5-trifluoro-phenyl)-butyryl]-3-trifluoromethyl-5,6,7,8-tetrahydro-imidazo[1,5-a]pyrazine-1-carboxylic acid methyl ester]	95.2	95.7	95.2	93.3	92.2													AUC0-t (in vivo): 409 ng·h/mL; AUC(0-inf) (in vivo): 425 ng·h/mL; CL/F (in vivo): 545 mL/min/kg; Cmax (in vivo): 242 ng/mL; MRT (in vivo): 1.96 h; Tmax (in vivo): 30 min; half-life (in vivo): 92.4 min
COC(=O)c1nc(C(F)(F)F)n2c1CN(C(=O)CC(N)Cc1cc(F)c(F)cc1F)CC2.CS(=O)(=O)O (stereo not shown) [Mesylate of compound A]	96.7	96.5	97.6	95.6	95.4	108 ± 8	115 ± 9	92 ± 7	5.8 ± 0.4	287 ± 34	274	275	397	133	1.61	52.8	52.2	
